Legend:
HSV polymerase = HSV polymerase (Human herpesvirus 1, UniProt P04293); assay: HSV polymerase assay (SPA); type: biochemical
Procedure: [Worded in the source for another target; used here, by the source, with some conditions changed.] (§1) The HCMV polymerase assay is performed using a scintillation proximity assay (SPA) as described in several references, such as N.D. Cook, et al., Pharmaceutical Manufacturing International, pages 49-53 (1992), K Takeuchi, Laboratory Practice, September issue (1992); U.S. Pat. No. 4,568,649 (1986); which are incorporated by reference herein. Reactions are performed in 96-well plates. The assay is conducted in 100 μl volume with 5.4 mM HEPES (pH 7.5), 11.7 mM KCl, 4.5 mM MgCl2, 0.36 mg/ml BSA, and 90 nM ^3H-dTTP. Assays are run with and without CHAPS, (3-[(3-Cholamidopropyl)-dimethylammonio]-1-propane-sulfonate) at a final concentration of 2 mM. HCMV polymerase is diluted in enzyme dilution buffer containing 50% glycerol, 250 mM NaCl, 10 mM HEPES (pH 7.5), […] BSA, and 0.01% sodium azide. The HCMV polymerase, which is expressed in recombinant baculovirus-infected SF-9 cells and purified according to literature procedures, is added at 10% (or 10 μl) of the final reaction volume, i.e., 100 μl. Compounds are diluted in 50% DMSO and 10 μl are added to each well. Control wells contain an equivalent concentration of DMSO. Unless noted otherwise, reactions are initiated via the addition of 6 nM biotinylated poly(dA)-oligo(dT) template/primer to reaction mixtures containing the enzyme, substrate, and compounds of interest. Plates are incubated in a 25° C. or 37° C. H2O bath and terminated via the addition of 40 μl/reaction of 0.5 M EDTA (pH 8) per well. Reactions are terminated within the time-frame during which substrate incorporation is linear and varied depending upon the enzyme and conditions used, Le., 30 min. for HCMV polymerase. Ten (10) μl of streptavidin-SPA beads (20 mg/ml in PBS/10% glycerol) are added following termination of the reaction. Plates are incubated 10 min. at 37° C., then equilibrated to room temperature, and counted on a Packard Topcount. Linear regressions are performed and IC50's are calculated using computer software.
(§2) A modified version of the above HCMV polymerase assay is performed as described above, but with the following changes: Compounds are diluted in 100% DMSO until final dilution into assay buffer. In the previous assay, compounds are diluted in 50% DMSO. 4.5 mM Dithiothreitol (DTT) is added to the polymerase buffer.
(§3) All results are listed as Polymerase IC50(μM) values. In Table 1, the term “n.d.” refers to activity data not determined.

HCMV polymerase = target: T1, HCMV polymerase (Human cytomegalovirus, UniProt P08546); assay: HCMV polymerase scintillation proximity assay; type: biochemical
T1 construct: made in house; host or cells: SF-9 insect cells (recombinant baculovirus)
T1 sequence (P08546 whole entry): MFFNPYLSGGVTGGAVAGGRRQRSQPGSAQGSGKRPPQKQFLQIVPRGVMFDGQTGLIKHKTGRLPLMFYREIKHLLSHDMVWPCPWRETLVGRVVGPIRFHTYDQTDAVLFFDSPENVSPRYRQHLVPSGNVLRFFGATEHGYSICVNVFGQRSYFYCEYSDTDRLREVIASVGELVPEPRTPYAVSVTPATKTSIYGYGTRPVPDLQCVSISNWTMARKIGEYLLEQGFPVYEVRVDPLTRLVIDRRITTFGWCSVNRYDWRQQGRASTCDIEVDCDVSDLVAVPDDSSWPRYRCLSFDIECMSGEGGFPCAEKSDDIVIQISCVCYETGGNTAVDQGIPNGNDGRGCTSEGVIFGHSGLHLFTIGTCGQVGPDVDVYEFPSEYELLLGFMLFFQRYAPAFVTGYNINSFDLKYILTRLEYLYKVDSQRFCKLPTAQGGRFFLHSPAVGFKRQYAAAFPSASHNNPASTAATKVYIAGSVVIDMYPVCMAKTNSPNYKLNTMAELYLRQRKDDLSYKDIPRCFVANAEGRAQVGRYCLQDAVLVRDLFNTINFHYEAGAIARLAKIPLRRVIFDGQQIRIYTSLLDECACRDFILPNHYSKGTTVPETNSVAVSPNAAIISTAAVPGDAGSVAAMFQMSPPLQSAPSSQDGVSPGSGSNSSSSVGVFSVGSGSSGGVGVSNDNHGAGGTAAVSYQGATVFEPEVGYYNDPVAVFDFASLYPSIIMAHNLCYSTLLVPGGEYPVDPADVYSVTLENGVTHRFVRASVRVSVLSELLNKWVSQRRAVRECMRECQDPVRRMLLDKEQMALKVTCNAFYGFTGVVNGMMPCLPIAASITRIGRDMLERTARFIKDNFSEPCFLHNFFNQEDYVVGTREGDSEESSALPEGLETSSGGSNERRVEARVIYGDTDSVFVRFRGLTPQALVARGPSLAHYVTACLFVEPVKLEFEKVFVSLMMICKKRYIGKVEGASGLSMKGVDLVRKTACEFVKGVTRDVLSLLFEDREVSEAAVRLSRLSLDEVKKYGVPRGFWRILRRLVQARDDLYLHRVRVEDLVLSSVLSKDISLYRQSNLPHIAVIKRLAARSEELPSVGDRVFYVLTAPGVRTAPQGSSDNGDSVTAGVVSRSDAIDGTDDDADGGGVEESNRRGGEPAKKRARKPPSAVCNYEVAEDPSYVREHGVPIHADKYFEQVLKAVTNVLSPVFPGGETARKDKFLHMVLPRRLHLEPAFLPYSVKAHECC
Procedure: as §1, §2, §3

VZV polymerase = VZV polymerase (Varicella-zoster virus, UniProt P09252); assay: VZV polymerase assay (SPA); type: biochemical
Sequence of VZV polymerase (P09252 whole entry): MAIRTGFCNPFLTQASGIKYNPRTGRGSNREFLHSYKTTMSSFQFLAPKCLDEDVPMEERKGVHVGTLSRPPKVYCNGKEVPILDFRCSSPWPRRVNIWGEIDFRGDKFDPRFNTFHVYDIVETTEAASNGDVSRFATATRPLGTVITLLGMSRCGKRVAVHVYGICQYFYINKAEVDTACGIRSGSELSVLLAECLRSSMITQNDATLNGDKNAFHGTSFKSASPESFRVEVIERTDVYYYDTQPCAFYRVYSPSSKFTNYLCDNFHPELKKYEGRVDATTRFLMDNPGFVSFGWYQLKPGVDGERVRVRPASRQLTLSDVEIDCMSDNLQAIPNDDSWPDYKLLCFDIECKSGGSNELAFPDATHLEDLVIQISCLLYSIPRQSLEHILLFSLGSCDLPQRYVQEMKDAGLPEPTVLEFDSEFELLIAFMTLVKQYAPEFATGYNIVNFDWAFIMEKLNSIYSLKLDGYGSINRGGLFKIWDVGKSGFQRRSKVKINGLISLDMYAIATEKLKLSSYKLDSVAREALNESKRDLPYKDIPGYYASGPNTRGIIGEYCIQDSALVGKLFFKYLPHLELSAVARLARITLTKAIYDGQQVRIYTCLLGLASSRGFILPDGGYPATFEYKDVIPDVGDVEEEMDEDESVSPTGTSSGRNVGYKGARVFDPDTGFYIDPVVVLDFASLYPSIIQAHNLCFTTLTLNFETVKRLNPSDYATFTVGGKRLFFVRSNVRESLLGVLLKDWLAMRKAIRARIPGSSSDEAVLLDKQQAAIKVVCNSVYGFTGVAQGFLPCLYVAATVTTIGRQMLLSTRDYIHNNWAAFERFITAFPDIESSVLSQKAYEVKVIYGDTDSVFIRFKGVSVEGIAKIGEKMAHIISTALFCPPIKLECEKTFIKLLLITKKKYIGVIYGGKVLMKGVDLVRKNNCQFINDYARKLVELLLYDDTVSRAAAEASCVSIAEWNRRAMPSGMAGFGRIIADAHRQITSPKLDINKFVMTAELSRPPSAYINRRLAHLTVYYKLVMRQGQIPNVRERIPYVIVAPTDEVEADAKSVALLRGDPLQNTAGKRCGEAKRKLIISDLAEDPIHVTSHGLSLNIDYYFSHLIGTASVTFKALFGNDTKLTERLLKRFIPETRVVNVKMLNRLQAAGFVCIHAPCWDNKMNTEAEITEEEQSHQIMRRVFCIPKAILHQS
Procedure: [Worded in the source for another target; used here, by the source, with some conditions changed.] as §1, with “Control wells contain an equivalent concentration of DMSO. Unless noted otherwise, reactions are initiated via the addition of 6 nM biotinylated poly(dA)-oligo(dT) template/primer to reaction mixtures containing the enzyme, substrate, and compounds of interest. Plates are incubated in a 25° C. or 37° C. H2O bath and terminated via the addition of 40 μl/reaction of 0.5 M EDTA (pH 8) per well. Reactions are terminated within the time-frame during which substrate incorporation is linear and varied depending upon the enzyme and conditions used, Le., 30 min. for HCMV polymerase. Ten (10) μl of streptavidin-SPA beads (20 mg/ml in PBS/10% glycerol) are added following termination of the reaction.” left out, “software. […]” for “software.”
as §3

Sequence of HSV polymerase (P04293 whole entry): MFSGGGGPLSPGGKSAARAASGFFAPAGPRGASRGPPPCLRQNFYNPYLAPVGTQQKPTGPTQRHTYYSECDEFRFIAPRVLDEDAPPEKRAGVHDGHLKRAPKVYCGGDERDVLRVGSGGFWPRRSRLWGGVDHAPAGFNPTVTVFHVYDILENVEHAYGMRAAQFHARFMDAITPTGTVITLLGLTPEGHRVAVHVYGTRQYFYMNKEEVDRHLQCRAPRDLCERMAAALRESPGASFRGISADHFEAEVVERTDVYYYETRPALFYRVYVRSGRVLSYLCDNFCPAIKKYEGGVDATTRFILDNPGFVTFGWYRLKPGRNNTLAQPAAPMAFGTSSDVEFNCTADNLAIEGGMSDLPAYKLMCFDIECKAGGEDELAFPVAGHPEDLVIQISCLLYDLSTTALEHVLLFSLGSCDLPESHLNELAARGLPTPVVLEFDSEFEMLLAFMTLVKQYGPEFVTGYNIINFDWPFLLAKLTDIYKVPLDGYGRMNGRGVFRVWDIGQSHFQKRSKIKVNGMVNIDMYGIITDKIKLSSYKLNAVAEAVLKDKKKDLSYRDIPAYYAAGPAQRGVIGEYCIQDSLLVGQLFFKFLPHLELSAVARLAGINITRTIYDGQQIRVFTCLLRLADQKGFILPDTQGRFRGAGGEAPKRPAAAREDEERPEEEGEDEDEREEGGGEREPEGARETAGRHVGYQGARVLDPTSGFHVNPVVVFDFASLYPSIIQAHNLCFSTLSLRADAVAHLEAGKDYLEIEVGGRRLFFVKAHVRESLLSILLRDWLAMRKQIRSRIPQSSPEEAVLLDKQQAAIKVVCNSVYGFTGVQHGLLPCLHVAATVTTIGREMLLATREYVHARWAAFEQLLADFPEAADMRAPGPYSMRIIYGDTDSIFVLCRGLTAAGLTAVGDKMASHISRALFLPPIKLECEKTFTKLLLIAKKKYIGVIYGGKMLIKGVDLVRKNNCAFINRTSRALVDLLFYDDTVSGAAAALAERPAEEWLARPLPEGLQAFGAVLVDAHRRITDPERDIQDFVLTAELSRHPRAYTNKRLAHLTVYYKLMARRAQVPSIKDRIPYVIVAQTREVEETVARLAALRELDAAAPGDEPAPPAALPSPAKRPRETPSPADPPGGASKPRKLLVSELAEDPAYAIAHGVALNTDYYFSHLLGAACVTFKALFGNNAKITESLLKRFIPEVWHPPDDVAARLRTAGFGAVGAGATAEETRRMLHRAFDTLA

melting point	IC50 (HSV polymerase)	IC50 (HCMV polymerase)	IC50 (VZV polymerase)	SMILES
171 to 172 °C	2970 nM	1270 nM	–	Cn1cc(C(=O)NCc2ccc(Cl)cc2)c(=O)c2cc(CN3CCOC[C@@H]3[C@H](O)c3ccccc3)sc21 [Example 14, N-(4-Chlorobenzyl)-2-(((3R)-3-((R)-hydroxy(phenyl)methyl)morpholin-4-yl)-methyl)-7-methyl-4-oxo-4,7-dihydrothieno[2,3-b]pyridine-5-carboxamide]
–	1000 nM	450 nM	420 nM	Cn1cc(C(=O)NCc2ccc(Cl)cc2)c(=O)c2cc(CN3CCOC[C@@H]3Cc3ccccc3)sc21 [Example 1, 2-(((3S)-3-Benzylmorpholin-4-yl)methyl)-N-(4-chlorobenzyl)-7-methyl-4-oxo-4,7-dihydrothieno[2,3-b]pyridine-5-carboxamide]
158 to 162 °C	720 nM	120 nM	210 nM	Cn1cc(C(=O)NCc2ccc(Cl)cc2)c(=O)c2cc(CN3CCC[C@@H]3[C@@H](O)c3ccccc3)sc21 (relative stereo) [Example 2, N-(4-Chlorobenzyl)-2-(((2R*2)-(S*)-hydroxy(phenyl)methyl)pyrrolidin-1-yl)methyl)-7-methyl-4-oxo-4,7-dihydrothieno[2,3-b]pyridine-5-carboxamide]
129 to 134 °C	22 nM	24 nM	–	Cn1cc(C(=O)NCc2ccc(Cl)cc2)c(=O)c2cc(CN3CCOC[C@@H]3[C@@H](O)c3ccccc3)sc21 [Example 15, N-(4-Chlorobenzyl)-2-(((3R)-3-((S)hydroxy(phenyl)methyl)morpholin-4-yl)-methyl)-7-methyl-4-oxo-4,7-dihydrothieno[2,3-b]pyridine-5-carboxamide]
